# In patent US9388382B2, “Isolation of CD14 negative, CD45 positive and CD117 positive embryonic-like stem cells free of monocytes from human umbilical cord blood mononuclear cells” (THE BOARD OF TRUSTEES OF THE UNIVERSITY OF ILLINOIS, priority 2005, dated 2016):
# Tests used:
# [1] = tested on: DNA methyltransferase (DNMT) activity of lymphocytes; experiment: DNA methyltransferase activity of lymphocytes regulated by CB-SC-derived NO; assay type: cell-based; conditions: presence of iNOS inhibitor
# [2] = tested on: PHA- or IL-2-stimulated allogeneic lymphocytes; experiment: Mitogen-stimulated lymphocyte proliferation in coculture with CB-SC (cell count); assay type: cell-based, human; conditions: 200 μM/day L-NNA for 3 days, p<0.05
# Method: (§1) For PHA stimulation, lymphocyte suspensions (1×10^6 cells/ml) with or without PHA (10 μg/ml, Sigma) were seeded onto CB-SC cell cultures in regular culture medium. PHA-stimulated lymphocytes without CB-SC served as positive control; lymphocytes cultured only in regular medium served as negative control. Lymphocytes cocultured with CB-SC without PHA stimulation served as an additional negative control. For IL-2 stimulation, IL-2 (500 U/ml, eBioscience) was used. After 5-6 days, the suspended lymphocytes were collected for cell count and/or flow analysis.
# Unfixed CB-SC from same cord blood units served as controls. Additionally, we employed transwell culture system with 0.4 μm size (Sigma) to plant lymphocytes.
# In experiments where N^ω-nitro-L-arginine (L-NNA, Sigma) was used to inhibit NO synthase, the drug (200 μM L-NNA) was added 1 h before PHA stimulation and then administrated 200 μM/day for additional two days. [Ziche, M., L. Morbidelli, E. Masini, S. Amerini, H. J. Granger, C. A. Maggi, P. Geppetti, and F. Ledda. 1994. Nitric oxide mediates angiogenesis in vivo and endothelial cell growth and migration in vitro promoted by substance P. J Clin Invest. 94:2036-2044].
# [3] = tested on: ConA-stimulated lymphocytes of diabetic NOD mouse; experiment: ConA-stimulated autoimmune lymphocyte proliferation in coculture with differentiated embryonic-like stem cells; assay type: cell-based; conditions: MGTA 10 μM, p<0.01
# Method: The specific carboxypeptidase inhibitor, carboxypeptidase inhibitor 2-mercaptomethyl-3-guanidinoethylthiopropanoic acid (MGTA, 10 μM) was applied to block carboxypeptidase. First, embryonic-like stem cells were differentiated by treatment with 10 nM Exendin4+10 ng/ml GM-CSF+25 mM glucose in 7% FBS-DMEM culture medium for 3-5 days. Second, autoimmune lymphocytes were isolated form the diabetic NOD mouse and then cocultured with these embryonic-like stem cells in the presence MGTA. The mouse lymphocyte mitogen concanavalin A (ConA) was used to stimulate the proliferation of lymphocytes.
# [4] = tested on: human peripheral blood lymphocyte subsets; experiment: Coculture of CB-SC with lymphocytes, flow analysis of T cell subsets; assay type: cell-based; conditions: PHA stimulation without CB-SC, p<0.05
# From the text: CB-SC adhere very tightly to the culture dishes and display large rounded morphology, it is easy to distinguish between CB-SC and lymphocytes. CB-SC growing at 80% confluence were used for coculture with allogeneic lymphocytes. Allogeneic lymphocytes were collected from buffy coats of healthy donors (Life-Source Blood Services, Glenview, Ill.) after Ficoll-Hypaque separation followed by removing all attached cells and then cocultured with CB-SC at the ratio (1:10) [Zhao, Y., H. Wang, and T. Mazzone. 2006. Identification of stem cells from human umbilical cord blood with embryonic and hematopoietic characteristics. Exp Cell Res. 2006, 312: 2454-2464. DOI: 10.1016/j.yexcr.2006.04.008. April 26; (Epub ahead of print)] of CB-SC.
# as §1, with “After 5-6 days, the suspended lymphocytes were collected for cell count and/or flow analysis.” left out
# Flow analysis was preformed as previously described [Zhao, Y., H. Wang, and T. Mazzone. […] After staining, cells were analyzed using a CyAn ADP (DakoCytomation). […]
# [5] = tested on: intracytoplasmic IL-10 in allogeneic lymphocytes; experiment: Flow analysis of intracellular IL-10 production; assay type: cell-based, human; conditions: PHA-stimulated lymphocytes without CB-SC
# Method: Allogeneic lymphocytes were cocultured with CB-SC at ratio 1:10 of CB-SC: lymphocytes, in the presence or absence of mitogen PHA. After coculture for 5-6 days, cells were permeabalized and evaluated for intracytoplasmic IL-10 level by flow cytometry. Isotype-matched mouse IgG1κ antibody served as negative control. Data represent one of at least three experiments with the similar results;
# as §1
# Flow analysis was preformed as previously described [Zhao, Y., H. Wang, and T. Mazzone. 2006. Identification of stem cells from human umbilical cord blood with embryonic and hematopoietic characteristics. Exp Cell Res. 2006, 312: 2454-2464. DOI: 10.1016/j.yexcr.2006.04.008. April 26; (Epub ahead of print)]. […] After staining, cells were analyzed using a CyAn ADP (DakoCytomation).
compound,measurement,setting,value
CC(=N)NCc1cccc(CN)c1 [1400 W],blocking of regulation of lymphocyte DNMT activity by CB-SC-derived NO,[1],significantly blocked
"NC(=NCCC[C@H](N)C(=O)O)N[N+](=O)[O-] [L-NNA, N-omega-nitro-L-arginine]",lymphocyte cell number in presence vs absence of L-NNA,[2],about 4 fold
2-mercaptomethyl-3-guanidinoethylthiopropanoic acid [MGTA],reversal of stem-cell inhibition of ConA-stimulated lymphocyte proliferation,[3],completely revert their inhibition
phytohaemagglutinin [PHA],increase of CD8^+ and decrease of CD4^+ T cell percentage vs lymphocytes alone,[4],more than 2 fold
same,IL-10-positive cells,[5],80%
